Converted amounts (≈) assume the structure as drawn.
How the values were obtained:
neutrophil elastase [1] = target: T1, neutrophil elastase (Homo sapiens (Human), UniProt P08246); assay: Human Neutrophil Elastase Assay; type: biochemical; conditions: substrate MeOSuc-Ala-Ala-Pro-Val-AMC
Target sequence in this assay (P08246 30-247): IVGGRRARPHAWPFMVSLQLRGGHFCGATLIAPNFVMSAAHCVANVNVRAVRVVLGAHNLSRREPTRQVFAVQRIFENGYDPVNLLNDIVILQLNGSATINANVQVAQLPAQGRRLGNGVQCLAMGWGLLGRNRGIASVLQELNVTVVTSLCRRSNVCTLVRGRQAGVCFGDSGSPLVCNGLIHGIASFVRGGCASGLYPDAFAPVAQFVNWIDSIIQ

neutrophil elastase [2] = target: T1, neutrophil elastase; assay: Neutrophil elastase inhibitory activity in human plasma; type: biochemical; conditions: zymosan-stimulated human plasma, substrate MeOSuc-Ala-Ala-Pro-Val-AMC
Procedure: Assay for the Determination of Neutrophil Elastase Inhibitory Activity in Human Plasma
Citrated blood from human healthy donors is mixed with zymosan suspension and incubated at room temperature. This leads to the stimulation of neutrophils and the release of neutrophil elastase into the plasma. The stimulated blood is centrifuged to generate the neutrophil elastase enriched plasma.
Preparation of Zymosan Working Solution:
• A single 45 ml blood sample is taken into a 50 ml tube containing citrate (3.13%, 5 mL) and the tube is gently inverted 4 times. • Immediately after blood sampling, zymosan working solution (5 mL) is added. • After the addition of zymosan working solution, the tubes are capped, mixed gently and incubated at 22° C. for 15 min on a shaker at 20 rpm. • Make 10 ml aliquots after the incubation time. • Centrifuge the 15 ml tubes at 800 g for 15 min at 4° C. in a Jouan centrifuge. • Harvest the plasma and make 1-5 ml aliquots. • Store the plasma at −80° C.
Various concentrations of the neutrophil elastase inhibitor are incubated with plasma. Subsequently, the enzyme activity is measured using the fluorogenic substrate MeOSuc-Ala-Ala-Pro-Val-AMC (Bachem Cat. No. I-1270, substrate concentration: 250 μM, pH 7.5, 25 mM TRIS buffer, 250 mM NaCl) in analogous fashion as described for the human neutrophil assay. A dose response curve is generated to calculate the EC50 of the inhibitor. The analysis of the data is performed by the calculation of the percentage of fluorescence in the presence of the test compound compared to the fluorescence of the vehicle control after subtracting the background fluorescence: An inhibitor of the neutrophil elastase enzyme will give values between 100% control (no inhibition) and 0% control (complete inhibition).
Target sequence in this assay (P08246 30-267): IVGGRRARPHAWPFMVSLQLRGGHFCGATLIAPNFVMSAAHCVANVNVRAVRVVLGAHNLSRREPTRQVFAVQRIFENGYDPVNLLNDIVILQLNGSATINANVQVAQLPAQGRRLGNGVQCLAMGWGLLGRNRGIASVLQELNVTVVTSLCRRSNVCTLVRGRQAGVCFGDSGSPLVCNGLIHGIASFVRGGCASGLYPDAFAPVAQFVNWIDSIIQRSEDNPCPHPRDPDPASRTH

[3] = Metabolic stability with human liver microsomes; type: in vitro ADME; conditions: pH 7.6; pooled human liver microsomes, 1 μM compound, 37° C.; read-out: t1/2 INVITRO
Procedure: Assay for the Determination of Metabolic Stability with Human Liver Microsomes
The metabolic degradation of the test compound is assayed at 37° C. with pooled human liver microsomes. The final incubation volume of 100 μl per time point contains TRIS buffer pH 7.6 (0.1 M), magnesium chloride (5 mM), microsomal protein (1 mg/ml) and the test compound at a final concentration of 1 μM. Following a short preincubation period at 37° C., the reactions are initiated by addition of beta-nicotinamide adenine dinucleotide phosphate, reduced form (NADPH, 1 mM) and terminated by transferring an aliquot into acetonitrile after different time points. Additionally, the NADPH-independent degradation is monitored in incubations without NADPH, terminated at the last time point. The [%] remaining test compound after NADPH independent incubation is reflected by the parameter c(control) (metabolic stability). The quenched incubations are pelleted by centrifugation (10,000 g, 5 min) An aliquot of the supernatant is assayed by LC-MS/MS for the amount of parent compound.
The half-life (t1/2 INVITRO) is determined by the slope of the semilogarithmic plot of the concentration-time profile. The intrinsic clearance (CL_[…]) is calculated by considering the amount of protein in the incubation: CL_[…][μl/min/mg protein]=(ln 2/(half-life[min]*protein content[mg/ml]))*1,000.
The half-life (t1/2 INVITRO) values of selected compounds in the metabolic stability assay human liver microsomes described above are listed in Table 3.

[4] = Drug transport across human Caco-2 cells; type: in vitro ADME; conditions: human, Caco-2, pH 7.2, 37° C.
Text: Assay for Determination of Drug Transport Across Human Caco-2 Cells
The assay provides information on the potential of a compound to pass the cell membrane, on the extent of oral absorption as well as on whether the compound is actively transported by uptake and/or efflux transporters. For the measurement of permeability across polarized, confluent human cancer colon carcinoma cells 2 (Caco-2) cell monolayers grown on permeable filter supports are used as the in vitro absorption model.
Apparent permeability coefficients (PE) of the compounds across the Caco-2 monolayers are measured (pH 7.2, 37° C.) in apical-to-basal (AB) (absorptive) and basal-to-apical (BA) (secretory) transport direction. AB permeability (PEAB) represents drug absorption from the intestine into the blood and BA permeability (PEBA) drug secretion from the blood back into the intestine via both passive permeability as well as active transport mechanisms mediated by efflux and uptake transporters that are expressed on the Caco-2 cells. The compounds are assigned to permeability/absorption classes by comparison of the AB permeabilities with the AB permeabilities of reference compounds with known in vitro permeability and oral absorption in the human. Identical or similar permeabilities in both transport directions indicate passive permeation, vectorial permeability points to additional active transport mechanisms. […] Active transport is concentration-dependently saturable.
Caco-2 cells (1-2*10^5 cells/cm^2 area) are seeded on filter inserts (Costar transwell polycarbonate or PET filters, 0.4 μm pore size) and cultured (DMEM) for 10 to 25 days. Compounds are dissolved in appropriate solvent (like DMSO, 1-20 mM stock solutions). Stock solutions are diluted with HTP-4 buffer (128.13 mM NaCl, 5.36 mM KCl, 1 mM MgSO4, 1.8 mM CaCl2, 4.17 mM NaHCO3, 1.19 mM Na2HPO4x7H2O, 0.41 mM NaH2PO4xH2O, 15 mM HEPES, 20 mM glucose, pH 7.2) to prepare the transport solutions (typically 10 μM compound, final DMSO<=0.5%). The transport solution (TL) is applied to the apical or basolateral donor side for measuring A-B or B-A permeability (3 filter replicates), respectively. The receiver side contains HTP-4 buffer supplemented with 2% BSA. Samples are collected at the start and end of experiment from the donor and at various time intervals for up to 2 hours also from the receiver side for concentration measurement by LC-MS/MS or scintillation counting. Sampled receiver volumes are replaced with fresh receiver solution.
The apparent permeability coefficients (PEAB and PEBA) of selected compounds in the Caco-2 drug transport assay described above are listed in Table 5.

Aqueous solubility = type: physicochemical; conditions: McIlvaine buffer with 2.5% DMSO, aqueous buffer, kinetic from dmso stock, McIlvaine buffer pH 6.8, 2.5% DMSO
Procedure: Assay for Determination of Aqueous Solubility
Starting from a 10 mM DMSO stock solution, aliquots are diluted with acetonitrile/water (1/1) and McIlvaine buffer pH 6.8, respectively. After 24 h of shaking, the solutions or suspensions are filtered and analyzed by LC-UV. The amount dissolved in buffer is compared to the amount dissolved in the acetonitrile/water (1/1) solution. Solubility is measured from 0.001 to 0.125 mg/ml at a DMSO concentration of 2.5%. If more than 90% of the compound is dissolved in buffer, the value is marked with “>”.

| SMILES | IC50 (neutrophil elastase [1]) [nM] | also measured |
| --- | --- | --- |
| CC(=O)C1=C(C)N(c2cccc(C(F)(F)F)c2)C(=O)N(C)C1c1ccc(C#N)cc1-c1nnc(C)o1 (stereo not shown) [Example 8, 4-[5-Acetyl-3,6-dimethyl-2-oxo-1-(3-trifluoromethyl-phenyl)-1,2,3,4-tetrahydro-pyrimidin-4-yl]-3-(5-methyl-[1,3,4]oxadiazol-2-yl)-benzonitrile] | < 1 | EC50 (neutrophil elastase [2]): 6 nM; half-life at 1 μM [3]: > 2.17 h; Papp A→B at 10 μM ([4]; apical-to-basal, read-out: PEAB): 77 ×10⁻⁶ cm/s; Papp B→A at 10 μM ([4]; basal-to-apical, read-out: PEBA): 63 ×10⁻⁶ cm/s; solubility at 24 h (Aqueous solubility): 30 µg/mL (≈ 60.5 µM) |
| CNCCN(C)C(=O)c1cc(C#N)ccc1C1C(C(C)=O)=C(C)N(c2cccc(C(F)(F)F)c2)C(=O)N1C (stereo not shown) [Example 2.12] | < 1 |  |
| CCOC(=O)C1=C(C)N(c2cccc(C(F)(F)F)c2)C(=O)N(C)C1c1ccc(C#N)cc1C(=O)N1CCn2cnnc2C1 (stereo not shown) [Example 3.41] | < 1 |  |
| CC(=O)C1=C(C)N(c2cccc(C(F)(F)F)c2)C(=O)N(C)C1c1ccc(C#N)cc1-c1ccco1 (stereo not shown) [Example 5.1] | 1.9 |  |
| COCCCN(C)C(=O)c1cc(C#N)ccc1C1C(C(C)=O)=C(C)N(c2cccc(C(F)(F)F)c2)C(=O)N1C (stereo not shown) [Example 1.27] | < 1 |  |

From patent US9290457B2, “Substituted dihydropyrimidinones and their use as inhibitors of neutrophil elastase activity” (Boehringer Ingelheim International GmbH, priority 2014, dated 2016)
